Patent US8530472B2, “Ethynyl derivatives” (Hoffmann-La Roche Inc., priority 2011, dated 2013)

Target: T1, human mGlu5a receptor (Homo sapiens, UniProt P41594)
T1 construct: expressed in transfected cells
Test: Intracellular Ca2+ mobilization assay (mGlu5 PAM)
Type: cell-based
Details: HEK293; maximal response in % of the maximal stimulatory effect obtained with saturating concentrations of L-glutamate; HEK-293 human mGlu5a cells; read-out: Eff. (%)
Experimental: A monoclonal HEK-293 cell line stably transfected with a cDNA encoding for the human mGlu5a receptor was generated; for the work with mGlu5 Positive Allosteric Modulators (PAMs), a cell line with low receptor expression levels and low constitutive receptor activity was selected to allow the differentiation of agonistic versus PAM activity. Cells were cultured according to standard protocols (Freshney, 2000) in Dulbecco's Modified Eagle Medium with high glucose supplemented with 1 mM glutamine, 10% (vol/vol) heat-inactivated bovine calf serum, Penicillin/Streptomycin, 50 μg/ml hygromycin and 15 μg/ml blasticidin (all cell culture reagents and antibiotics from Invitrogen, Basel, Switzerland).
About 24 hrs before an experiment, 5×10^4 cells/well were seeded in poly-D-lysine coated, black/clear-bottomed 96-well plates. The cells were loaded with 2.5 μM Fluo-4AM in loading buffer (1×HBSS, 20 mM HEPES) for 1 hr at 37° C. and washed five times with loading buffer. The cells were transferred into a Functional Drug Screening System 7000 (Hamamatsu, Paris, France), and 11 half logarithmic serial dilutions of test compound at 37° C. were added and the cells were incubated for 10-30 min. with on-line recording of fluorescence. Following this pre-incubation step, the agonist L-glutamate was added to the cells at a concentration corresponding to EC20 (typically around 80 μM) with on-line recording of fluorescence; in order to account for day-to-day variations in the responsiveness of cells, the EC20 of glutamate was determined immediately ahead of each experiment by recording of a full dose-response curve of glutamate.
Responses were measured as peak increase in fluorescence minus basal (i.e. fluorescence without addition of L-glutamate), normalized to the maximal stimulatory effect obtained with saturating concentrations of L-glutamate. Graphs were plotted with the % maximal stimulatory using XLfit, a curve fitting program that iteratively plots the data using Levenburg Marquardt algorithm. The single site competition analysis equation used was y=A+((B−A)/(1+((x/C)D))), where y is the % maximal stimulatory effect, A is the minimum y, B is the maximum y, C is the EC50, x is the log 10 of the concentration of the competing compound and D is the slope of the curve (the Hill Coefficient). From these curves the EC50 (concentration at which half maximal stimulation was achieved), the Hill coefficient as well as the maximal response in % of the maximal stimulatory effect obtained with saturating concentrations of L-glutamate were calculated.
A depression of the signal observed after addition of the EC20 concentration of L-glutamate was indicative of an inhibitory activity of the test compound.

T1 sequence (P41594 21-1180 isoform P41594-2 limits assumed): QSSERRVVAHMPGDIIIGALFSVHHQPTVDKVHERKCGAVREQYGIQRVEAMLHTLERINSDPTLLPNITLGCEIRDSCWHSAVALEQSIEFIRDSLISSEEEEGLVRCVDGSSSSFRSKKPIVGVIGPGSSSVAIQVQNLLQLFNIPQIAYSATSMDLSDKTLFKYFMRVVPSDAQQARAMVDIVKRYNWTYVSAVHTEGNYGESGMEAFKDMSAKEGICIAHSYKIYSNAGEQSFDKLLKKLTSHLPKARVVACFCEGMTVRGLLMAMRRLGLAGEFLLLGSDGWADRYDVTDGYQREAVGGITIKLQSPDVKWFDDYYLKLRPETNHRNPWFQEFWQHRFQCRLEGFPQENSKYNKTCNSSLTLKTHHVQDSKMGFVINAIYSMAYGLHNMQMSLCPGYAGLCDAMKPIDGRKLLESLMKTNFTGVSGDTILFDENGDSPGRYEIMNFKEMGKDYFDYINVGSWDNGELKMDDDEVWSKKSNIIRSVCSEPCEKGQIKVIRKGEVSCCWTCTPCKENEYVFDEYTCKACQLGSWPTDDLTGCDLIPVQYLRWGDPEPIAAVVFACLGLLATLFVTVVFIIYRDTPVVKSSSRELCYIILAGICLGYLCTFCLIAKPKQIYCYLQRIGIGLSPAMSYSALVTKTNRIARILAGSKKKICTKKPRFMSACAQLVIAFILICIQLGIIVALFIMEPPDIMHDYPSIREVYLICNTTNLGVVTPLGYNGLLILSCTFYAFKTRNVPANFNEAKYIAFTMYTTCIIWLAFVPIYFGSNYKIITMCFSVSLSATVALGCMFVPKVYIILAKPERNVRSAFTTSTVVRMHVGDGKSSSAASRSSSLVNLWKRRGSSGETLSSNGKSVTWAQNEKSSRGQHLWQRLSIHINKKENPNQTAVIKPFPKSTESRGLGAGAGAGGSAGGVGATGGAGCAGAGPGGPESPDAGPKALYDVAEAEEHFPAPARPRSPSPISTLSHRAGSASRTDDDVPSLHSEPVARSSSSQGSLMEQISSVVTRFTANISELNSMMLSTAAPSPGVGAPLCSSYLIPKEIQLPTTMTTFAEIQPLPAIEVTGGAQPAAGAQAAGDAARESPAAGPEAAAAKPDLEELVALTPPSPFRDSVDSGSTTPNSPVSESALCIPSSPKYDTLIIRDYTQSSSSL

| Structure (SMILES) | Emax |
| --- | --- |
| CC(C)(C)C(=O)Nc1ccc(C#Cc2ccccc2)nn1 [Example 9, 2,2-Dimethyl-N-(6-phenylethynyl-pyridazin-3-yl)-propionamide] | 73% |
| COCC(=O)Nc1ccc(C#Cc2ccccc2)cn1 [Example 10, 2-Methoxy-N-(5-phenylethynyl-pyridin-2-yl)-acetamide] | 43% |
| COC(C)(C)C(=O)Nc1ccc(C#Cc2ccccc2)cn1 [Example 12, 2-Methoxy-2-methyl-N-(5-phenylethynyl-pyridin-2-yl)-propionamide] | 68% |
| CCCCC(=O)Nc1ccc(C#Cc2ccccc2)cn1 [Example 3, Pentanoic acid (5-phenylethynyl-pyridin-2-yl)-amide] | 84% |
| CSCC(=O)Nc1ccc(C#Cc2ccccc2)cn1 [Example 6, 2-Methylsulfanyl-N-(5-phenylethynyl-pyridin-2-yl)-acetamide] | 47% |
| CCCC(C)C(=O)Nc1ccc(C#Cc2ccccc2)cn1 (racemic) [Example 5, (RS)-2-Methyl-pentanoic acid (5-phenylethynyl-pyridin-2-yl)-amide] | 75% |
| CCCC(=O)Nc1ccc(C#Cc2ccccc2)cn1 [Example 2, N-(5-Phenylethynyl-pyridin-2-yl)-butyramide] | 52% |
| CC(C)(C(=O)Nc1ccc(C#Cc2cccc(Cl)c2)cn1)C(F)(F)F [Example 15, N-[5-(3-Chloro-phenylethynyl)-pyridin-2-yl]-3,3,3-trifluoro-2,2-dimethyl-propionamide] | 46% |

Other lines, results leading:

| Emax | Structure (SMILES) |
| --- | --- |
| 74% | CN(C(=O)C(C)(C)C)c1ncc(C#Cc2ccccc2)cn1 [Example 8, 2,2,N-Trimethyl-N-(5-phenylethynyl-pyrimidin-2-yl)-propionamide] |
| 54% | COC(C)(C)C(=O)Nc1ccc(C#Cc2cccc(F)c2)cn1 [Example 13, N-[5-(3-Fluoro-phenylethynyl)-pyridin-2-yl]-2-methoxy-2-methyl-propionamide] |
| 47% | COC(C)(C)C(=O)Nc1ccc(C#Cc2cc(F)ccc2F)cn1 [Example 14, N-[5-(2,5-Difluoro-phenylethynyl)-pyridin-2-yl]-2-methoxy-2-methyl-propionamide] |
| 59% | CC(C)(C)C(=O)Nc1ncc(C#Cc2ccccc2)cn1 [Example 7, 2,2-Dimethyl-N-(5-phenylethynyl-pyrimidin-2-yl)-propionamide] |
| 44% | CC(C)(C)C(=O)Nc1ccc(C#Cc2cccc(F)c2)cn1 [Example 11, N-[5-(3-Fluoro-phenylethynyl)-pyridin-2-yl]-2,2-dimethyl-propionamide] |
| 83% | CC(C)CC(=O)Nc1ccc(C#Cc2ccccc2)cn1 [Example 4, 3-Methyl-N-(5-phenylethynyl-pyridin-2-yl)-butyramide] |
| 45% | CC(C)(C)C(=O)Nc1ccc(C#Cc2cccc(Cl)c2)nn1 [Example 16, N-[6-(3-Chloro-phenylethynyl)-pyridazin-3-yl]-2,2-dimethyl-propionamide] |
| 72% | CC(C)(C)C(=O)Nc1ccc(C#Cc2ccccc2)cn1 [Example 1, 2,2-Dimethyl-N-(5-phenylethynyl-pyridin-2-yl)-propionamide] |

Same assay, conditions: HEK-293 cells stably transfected with human mGlu5a receptor; L-glutamate added at EC20 (typically around 80 μM) after 10-30 min pre-incubation with test compound; read-out: EC50 (nM) mGlu5PAM

| Structure (SMILES) | EC50 |
| --- | --- |
| CC(C)(C)C(=O)Nc1ccc(C#Cc2ccccc2)nn1 [Example 9, 2,2-Dimethyl-N-(6-phenylethynyl-pyridazin-3-yl)-propionamide] | 6 nM |
| COCC(=O)Nc1ccc(C#Cc2ccccc2)cn1 [Example 10, 2-Methoxy-N-(5-phenylethynyl-pyridin-2-yl)-acetamide] | 49 nM |
| COC(C)(C)C(=O)Nc1ccc(C#Cc2ccccc2)cn1 [Example 12, 2-Methoxy-2-methyl-N-(5-phenylethynyl-pyridin-2-yl)-propionamide] | 77 nM |
| CCCCC(=O)Nc1ccc(C#Cc2ccccc2)cn1 [Example 3, Pentanoic acid (5-phenylethynyl-pyridin-2-yl)-amide] | 48 nM |
| CSCC(=O)Nc1ccc(C#Cc2ccccc2)cn1 [Example 6, 2-Methylsulfanyl-N-(5-phenylethynyl-pyridin-2-yl)-acetamide] | 18 nM |
| CCCC(C)C(=O)Nc1ccc(C#Cc2ccccc2)cn1 (racemic) [Example 5, (RS)-2-Methyl-pentanoic acid (5-phenylethynyl-pyridin-2-yl)-amide] | 48 nM |
| CCCC(=O)Nc1ccc(C#Cc2ccccc2)cn1 [Example 2, N-(5-Phenylethynyl-pyridin-2-yl)-butyramide] | 70 nM |
| CC(C)(C(=O)Nc1ccc(C#Cc2cccc(Cl)c2)cn1)C(F)(F)F [Example 15, N-[5-(3-Chloro-phenylethynyl)-pyridin-2-yl]-3,3,3-trifluoro-2,2-dimethyl-propionamide] | 19 nM |

Further lines, results first:

| EC50 | Structure (SMILES) |
| --- | --- |
| 52 nM | CN(C(=O)C(C)(C)C)c1ncc(C#Cc2ccccc2)cn1 [Example 8, 2,2,N-Trimethyl-N-(5-phenylethynyl-pyrimidin-2-yl)-propionamide] |
| 85 nM | COC(C)(C)C(=O)Nc1ccc(C#Cc2cccc(F)c2)cn1 [Example 13, N-[5-(3-Fluoro-phenylethynyl)-pyridin-2-yl]-2-methoxy-2-methyl-propionamide] |
| 94 nM | COC(C)(C)C(=O)Nc1ccc(C#Cc2cc(F)ccc2F)cn1 [Example 14, N-[5-(2,5-Difluoro-phenylethynyl)-pyridin-2-yl]-2-methoxy-2-methyl-propionamide] |
| 56 nM | CC(C)(C)C(=O)Nc1ncc(C#Cc2ccccc2)cn1 [Example 7, 2,2-Dimethyl-N-(5-phenylethynyl-pyrimidin-2-yl)-propionamide] |
| 15 nM | CC(C)(C)C(=O)Nc1ccc(C#Cc2cccc(F)c2)cn1 [Example 11, N-[5-(3-Fluoro-phenylethynyl)-pyridin-2-yl]-2,2-dimethyl-propionamide] |
| 71 nM | CC(C)CC(=O)Nc1ccc(C#Cc2ccccc2)cn1 [Example 4, 3-Methyl-N-(5-phenylethynyl-pyridin-2-yl)-butyramide] |
| 7 nM | CC(C)(C)C(=O)Nc1ccc(C#Cc2cccc(Cl)c2)nn1 [Example 16, N-[6-(3-Chloro-phenylethynyl)-pyridazin-3-yl]-2,2-dimethyl-propionamide] |
| 19 nM | CC(C)(C)C(=O)Nc1ccc(C#Cc2ccccc2)cn1 [Example 1, 2,2-Dimethyl-N-(5-phenylethynyl-pyridin-2-yl)-propionamide] |
